# From ChEMBL document CHEMBL1201862, “PubChem BioAssay data set” (2004)
# Active and inactive are the calls of the source.
# Key:
# [1] = biological target: T1, DNA repair protein RAD52 homolog (Homo sapiens, UniProt P43351); assay type: functional, biochemical
# T1 sequence (P43351 whole entry): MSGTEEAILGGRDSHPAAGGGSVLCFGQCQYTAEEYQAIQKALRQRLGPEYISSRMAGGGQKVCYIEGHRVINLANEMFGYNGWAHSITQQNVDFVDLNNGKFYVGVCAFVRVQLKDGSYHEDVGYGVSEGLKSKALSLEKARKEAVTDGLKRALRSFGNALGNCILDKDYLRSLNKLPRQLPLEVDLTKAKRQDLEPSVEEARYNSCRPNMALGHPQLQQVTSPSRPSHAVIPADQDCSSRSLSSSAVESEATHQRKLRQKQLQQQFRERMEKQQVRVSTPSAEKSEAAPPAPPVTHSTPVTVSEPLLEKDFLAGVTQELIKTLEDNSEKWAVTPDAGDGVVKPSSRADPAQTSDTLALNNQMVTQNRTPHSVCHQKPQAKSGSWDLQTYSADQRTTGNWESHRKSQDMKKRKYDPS
# [2] = Luminescence Cell-Based Dose Retest to Confirm Inhibitors of Cancer Stem Cells. [Related pubchem assays (depositor defined):AID2717, AID2721]; assay type: functional; settings: Homo sapiens
# [3] = biological target: Mu-type opioid receptor (Homo sapiens, UniProt P35372); assay type: functional, cell-based;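 further: U2OS cells with beta-arrestin recruitment to OPRM1 by beta-gal complementation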
# [4] = biological target: 5-hydroxytryptamine receptor 2A (Mus musculus, UniProt P35363); assay type: functional, cell-based;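 further: CHO-K1 cells with tagged receptor and beta-arrestin; agonist potency measured as compound-induced activation of the receptor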
# [5] = biological target: T2, Corticotropin-releasing factor receptor 2/Corticotropin-releasing factor-binding protein (Homo sapiens, UniProt P24387+Q13324); test: Dose Response confirmation of uHTS hits for small molecule antagonists of the CRF-binding protein and CRF-R2 receptor complex.; assay type: functional; settings: read-out: IC50_Mean
# T2 sequence (Q13324 whole entry): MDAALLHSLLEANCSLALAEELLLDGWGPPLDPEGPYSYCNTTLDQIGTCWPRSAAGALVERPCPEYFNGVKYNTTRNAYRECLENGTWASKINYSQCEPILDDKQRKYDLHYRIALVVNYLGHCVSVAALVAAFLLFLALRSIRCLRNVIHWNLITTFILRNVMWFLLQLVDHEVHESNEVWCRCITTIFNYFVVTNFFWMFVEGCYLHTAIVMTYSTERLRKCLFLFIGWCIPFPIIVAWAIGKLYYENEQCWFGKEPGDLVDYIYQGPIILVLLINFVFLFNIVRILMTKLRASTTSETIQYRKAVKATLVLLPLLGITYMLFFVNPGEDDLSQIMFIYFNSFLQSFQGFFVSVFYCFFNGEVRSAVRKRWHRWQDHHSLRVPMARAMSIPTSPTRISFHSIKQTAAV
# T2 sequence (P24387 whole entry): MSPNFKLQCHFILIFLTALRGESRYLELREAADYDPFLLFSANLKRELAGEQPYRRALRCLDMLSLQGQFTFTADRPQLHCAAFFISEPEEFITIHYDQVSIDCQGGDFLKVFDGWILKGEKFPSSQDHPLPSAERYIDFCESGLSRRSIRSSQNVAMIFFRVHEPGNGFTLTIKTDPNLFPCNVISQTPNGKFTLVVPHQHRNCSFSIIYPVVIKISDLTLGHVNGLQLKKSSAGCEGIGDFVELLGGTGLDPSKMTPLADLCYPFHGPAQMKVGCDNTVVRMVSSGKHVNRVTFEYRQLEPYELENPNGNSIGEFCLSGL
# [6] = alpha-synuclein stem-loop luciferase translation blockers – H4 neuroglioma cells, luminescence, confirmation (AID 1988); assay type: functional, cell-based
# [7] = viability loss in CEM21 cells – cell-based, CellTiter-Glo luminescence, cherry-picked, cytotoxicity control for viral fusion inhibitor project, dose response (AID 652042); assay type: functional;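 further: potency for signal decrease meaning cytotoxicity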
# [8] = Luminescence Cell-Based Dose Response HTS to Identify Inhibitors of 5'UTR Stem-Loop Driven Prion Protein mRNA Translation in H4 Neuroglioblastoma Cells. [Related pubchem assays: 1827 (Project Summary), 1813 (Primary HTS)]; assay type: functional
# [9] = luciferase reporter signal suppression in cells – H4 neuroglioma cells, luminescence, dose response (AID 1990); assay type: functional, cell-based
# [10] = biological target: T2, Corticotropin-releasing factor receptor 2/Corticotropin-releasing factor-binding protein; test: activators of CRF receptor 2 with binding protein – uHTS hits, confirmation (AID 602473); assay type: functional; settings: read-out: EC50_Mean
# [11] = HIV-1 AD8 envelope cell-cell fusion blockers – cherry-pick, dose response (AID 652062); assay type: functional, cell-based;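 further: luciferase signal from cell-cell fusion driven by HIV-1 clade B AD8 Env; potency is for inhibitors of fusion seen as a drop in luminescence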
# [12] = blockers of HIV-1 envelope-mediated cell-cell fusion – cherry-pick, dose response (AID 652057); assay type: functional, cell-based
# [13] = blockers of HIV-1 ZM109 envelope-driven cell-cell fusion – HeLa effector, CEM target cells, luciferase, cherry-pick, dose response (AID 652058); assay type: functional, cell-based;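 further: luciferase signal from HIV-1 Env mediated cell-cell fusion of effector and target cells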
# [14] = off-target signal loss in HeLa-CEM21 co-culture – HeLa F-luc CTL cells, cherry-picked, counter-screen for HIV-1 Env fusion inhibitor project, dose response (AID 652040); assay type: functional, cell-based;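 further: potency for signal decrease marking cytotoxic or nonspecific inhibition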
# [15] = system: Streptococcus sp. 'group A'; test: Streptococcus pyogenes SK(-)GAS viability under kanamycin – luminescence, BacTiterGlo, confirmation, counter-screen for streptokinase expression inhibitor project, dose response (AID 1900); assay type: functional, organism-based
# [16] = system: Streptococcus; test: GAS UMAA2166 growth inhibition – luminescence, BacTiterGlo, counter-screen for streptokinase expression inhibitor project, dose response (AID 1915); assay type: functional, organism-based;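 further: potency for reduction of bacterial viability or growth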
# [17] = Trypanosoma cruzi growth suppression in host cells – NIH3T3 host cells, beta-gal luminescence, confirmation (AID 2044); assay type: functional, cell-based;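 further: intracellular parasites grown in NIH/3T3 mouse fibroblasts as host cells; luminescent beta-galactosidase reporter signal from transgenic T. cruzi replicating inside host cells; inhibitors lower the luminescence signal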
# [18] = biological target: T3, Heat shock factor protein 1 (Mus musculus, UniProt P38532); test: decrease of HSF1-responsive luciferase luminescence – cell-based, NIH3T3, dose retest, confirmation (AID 2382); assay type: functional;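 further: NIH3T3 fibroblasts with HSF1-driven luciferase reporter stressed by proteasome inhibitor MG132; luminescence from HSF1-driven luciferase expression after 8 hours of MG132 stress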
# T3 sequence (P38532 whole entry): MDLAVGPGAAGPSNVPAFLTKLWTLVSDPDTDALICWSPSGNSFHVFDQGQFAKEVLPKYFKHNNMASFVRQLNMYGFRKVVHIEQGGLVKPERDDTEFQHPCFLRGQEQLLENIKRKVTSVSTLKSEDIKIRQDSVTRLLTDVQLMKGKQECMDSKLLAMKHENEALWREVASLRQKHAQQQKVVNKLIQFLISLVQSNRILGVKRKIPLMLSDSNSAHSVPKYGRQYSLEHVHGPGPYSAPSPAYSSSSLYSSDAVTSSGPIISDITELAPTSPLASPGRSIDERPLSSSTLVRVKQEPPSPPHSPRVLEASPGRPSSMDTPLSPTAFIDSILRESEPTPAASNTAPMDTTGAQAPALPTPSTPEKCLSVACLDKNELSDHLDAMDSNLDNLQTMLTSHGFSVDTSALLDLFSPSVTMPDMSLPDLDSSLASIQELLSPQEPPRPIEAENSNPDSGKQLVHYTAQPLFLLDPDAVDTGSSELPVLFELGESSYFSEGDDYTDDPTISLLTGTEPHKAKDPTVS
# [19] = biological target: T4, Streptokinase A (Streptococcus pyogenes serotype M1, UniProt P10520); test: viability-normalized secreted streptokinase activity reduction – plasminogen activation absorbance, OD405, dose response (AID 1914); assay type: functional, Streptococcus pyogenes M1 GAS;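 further: secreted streptokinase activity via plasminogen activation per viability signal from cell pellet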
# T4 sequence (P10520 whole entry): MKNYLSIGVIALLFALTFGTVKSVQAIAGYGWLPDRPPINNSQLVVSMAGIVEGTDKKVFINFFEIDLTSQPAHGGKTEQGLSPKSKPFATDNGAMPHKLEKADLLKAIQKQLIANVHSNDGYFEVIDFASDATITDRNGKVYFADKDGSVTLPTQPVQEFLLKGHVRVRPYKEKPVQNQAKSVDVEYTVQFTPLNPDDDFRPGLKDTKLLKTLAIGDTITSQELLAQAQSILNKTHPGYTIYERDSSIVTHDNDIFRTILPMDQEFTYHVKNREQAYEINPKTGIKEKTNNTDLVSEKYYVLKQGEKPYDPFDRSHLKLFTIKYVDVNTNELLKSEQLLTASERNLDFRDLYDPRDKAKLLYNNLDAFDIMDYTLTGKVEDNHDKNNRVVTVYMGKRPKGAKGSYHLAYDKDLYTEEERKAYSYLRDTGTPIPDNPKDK
# [20] = NIH3T3 cell viability loss – ATP luminescence, mouse fibroblasts, counter-screen, dose response (AID 2010); assay type: functional, cell-based;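 further: cells exposed to compound for about 90 hours before reading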
# Sequence of 5-hydroxytryptamine receptor 2A (P35363 whole entry): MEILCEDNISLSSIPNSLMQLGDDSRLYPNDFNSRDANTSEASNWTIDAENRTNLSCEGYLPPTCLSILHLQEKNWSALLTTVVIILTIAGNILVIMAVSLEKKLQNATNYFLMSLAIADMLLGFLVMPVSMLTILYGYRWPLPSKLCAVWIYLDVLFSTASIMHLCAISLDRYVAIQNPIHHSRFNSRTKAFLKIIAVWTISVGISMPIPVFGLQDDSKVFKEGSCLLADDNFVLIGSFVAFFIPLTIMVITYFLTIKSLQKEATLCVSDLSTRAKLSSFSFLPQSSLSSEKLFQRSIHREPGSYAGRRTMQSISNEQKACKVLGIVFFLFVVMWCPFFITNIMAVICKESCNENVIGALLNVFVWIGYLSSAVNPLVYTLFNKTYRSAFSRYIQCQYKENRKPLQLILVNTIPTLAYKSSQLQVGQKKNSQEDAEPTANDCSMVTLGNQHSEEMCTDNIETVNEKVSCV
# Sequence of Mu-type opioid receptor (P35372 whole entry): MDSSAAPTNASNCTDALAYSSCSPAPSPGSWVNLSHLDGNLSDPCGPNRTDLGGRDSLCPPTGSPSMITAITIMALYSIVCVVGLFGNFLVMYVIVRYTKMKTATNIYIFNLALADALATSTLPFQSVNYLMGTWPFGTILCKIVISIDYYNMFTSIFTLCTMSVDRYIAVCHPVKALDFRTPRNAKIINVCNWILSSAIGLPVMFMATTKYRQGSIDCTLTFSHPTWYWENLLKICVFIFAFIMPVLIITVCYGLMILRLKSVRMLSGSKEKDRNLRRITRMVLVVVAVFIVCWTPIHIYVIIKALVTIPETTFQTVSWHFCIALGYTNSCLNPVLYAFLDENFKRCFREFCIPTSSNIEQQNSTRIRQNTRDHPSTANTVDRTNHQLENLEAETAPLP
smiles,measurement,setting,value
CN(C)CCCn1c(=S)[nH]c2sc3c(c2c1=O)CCCC3,AC50,[1],5.83 µM (active)
same,AC50,[2],> 195 µM (inactive)
CN(C)S(=O)(=O)c1ccc(Cl)c(NC(=O)CN2CCc3ccccc3C2)c1,EC50,[3],92.5 µM (inactive)
same,EC50,[4],1.75 µM (active)
COC(=O)c1ccc(C(=O)NC2CCCc3c2cnn3-c2ccc(C)c(C)c2)cc1 (stereo not drawn),IC50,[5],> 47.1 µM (inactive)
same,EC50,[6],997 nM (active)
same,AC50,[7],19.4 µM (active)
same,EC50,[8],> 120 µM (not active)
same,EC50,[9],8.89 µM (inconclusive)
same,EC50,[10],> 53 µM (inactive)
same,AC50,[11],18.9 µM (active)
COC(=O)[C@@]12C[C@@H](CC(=O)NCc3cccc(C(F)(F)F)c3)C(=O)N(Cc3ccco3)C1=CCC(C)(C)C2,AC50,[12],4.26 µM (active)
same,AC50,[13],8.24 µM (active)
same,AC50,[7],50 µM (active)
same,AC50,[14],8.92 µM (active)
same,AC50,[11],20.9 µM (active)
Cc1ccc2nc(N(CCCN(C)C)C(=O)c3ccc(S(=O)(=O)N4CCCCCC4)cc3)sc2c1,EC50,[15],> 150 µM (not active)
same,EC50,[16],> 150 µM (not active)
same,EC50,[17],125 nM (active)
same,EC50,[18],109 µM (active)
same,AC50,[1],30.7 µM (active)
same,EC50,[19],> 150 µM (not active)
same,EC50,[20],> 60 µM (not active)
